From ChEMBL document CHEMBL2311533, “Pentacyclic hemiacetal sterol with antifouling and cytotoxic activities from the soft coral Nephthea sp” (Bioorg Med Chem Lett, 2013)
Values after ≈ are worked out from the molar mass of the structure shown.

Key:
[1] = Toxicity against Bugula neritina larvae
HeLa = assay: Cytotoxicity against human HeLa cells incubated for 48 hrs by MTT assay; assay type: functional, cell-based
[2] = Antifouling activity against Bugula neritina larvae; assay type: functional
[3] = Selectivity index, ratio of cytotoxic LC50 to antifouling EC50 in Bugula neritina larvae

| Compound | LC50 [1] | IC50 (HeLa) | EC50 [2] | Selectivity Index [3] |
| --- | --- | --- | --- | --- |
| CC(C)CC[C@H]1OC(O)[C@]23CC[C@H]4[C@@H](CCC5=CC(=O)C=C[C@@]54C)[C@@H]2CC[C@@H]3[C@@H]1C (mixture of isomers) [NEPHTHOACETAL] | > 25 µg/mL | 12.3 µg/mL | 2.5 µg/mL | >10 |
| CC(=O)O[C@@H]1O[C@H](CCC(C)C)[C@@H](C)[C@H]2CC[C@H]3[C@@H]4CCC5=CC(=O)C=C[C@]5(C)[C@H]4CC[C@]123 | > 25 µg/mL | 10.1 µg/mL (≈ 22.2 µM) | > 25 µg/mL | – |
| CC(=O)O[C@H]1O[C@H](CCC(C)C)[C@@H](C)[C@H]2CC[C@H]3[C@@H]4CCC5=CC(=O)C=C[C@]5(C)[C@H]4CC[C@]123 | > 25 µg/mL | 19.6 µg/mL (≈ 43.1 µM) | > 25 µg/mL | – |
